# Test system: HBsAg
# Experiment: HBsAg assay: inhibition of HBsAg in HepG2.2.15 cells (CLIA immunoassay of supernatant)
# Format: cell-based, hepatitis B virus (HBV)
# Conditions: Hepatitis B virus, HepG2.2.15, 144 h, read-out: sAg EC50, HepG2.2.15 cells; supernatant collected at day 6 after exposure; HBsAg chemiluminescence immunoassay
# Description: Inhibition of HBsAg was determined in HepG2.2.15 cells. Cells were maintained in culture medium containing 10% fetal calf serum, […], Glutamine, penicillin/streptomycin. Cells were seeded in 96-well collagen-coated plate at a density of 30,000 cells/well. Serially diluted compounds were added to cells next day at the final DMSO concentration of 0.5%. Cells were incubated with compounds for 2-3 days, after which medium was removed. Fresh medium containing compounds was added to cells for additional 3-4 days. At day 6 after exposure of compounds, supernatant was collected, the HBsAg immunoassay (microplate-based chemiluminescence immunoassay kits, CLIA, Autobio Diagnosics Co., Zhengzhou, China, Catalog #CL0310-2) was used to determine the level of HBsAg according to manufactory instruction. Dose-response curves were generated and the EC50 value (effective concentrations that achieved 50% inhibitory effect) were determined using XLfit software. In addition, cells can be seeded at a density of 5,000 cells/well for determination of cell viability in the presence and absence of compounds by using CellTiter-Glo reagent (Promega). Tables 1-3 show EC50 values obtained by the HBsAg assay for selected compounds.
row,Structure (SMILES),EC50 [nM]
1,"COCCCOc1cc2c(cc1OC)-c1[nH]c(=O)c(C(=O)O)c(F)c1C(C(C)C)C2 (stereo not shown) [Example 17, 4-Fluoro-5-isopropyl-9-methoxy-8-(3-methoxypropoxy)-2-oxo-1,2,5,6-tetrahydrobenzo[h]quinoline-3-carboxylic acid]",640
2,"COCCCOc1cc2c(cc1OC)-c1c(c(O)c(C(=O)O)c(=O)n1Cc1ccccc1)C(C(C)C)C2 (stereo not shown) [Example 18, 1-Benzyl-4-hydroxy-5-isopropyl-9-methoxy-8-(3-methoxypropoxy)-2-oxo-1,2,5,6-tetrahydrobenzo[h]quinoline-3-carboxylic acid]",15000
3,"COCCCOc1cc2c(cc1OC)-c1nc(Cl)c(C(=O)O)c(O)c1C(C(C)C)C2 (stereo not shown) [Example 19, 2-Chloro-4-hydroxy-5-isopropyl-9-methoxy-8-(3-methoxypropoxy)-5,6-dihydrobenzo[h]quinoline-3-carboxylicacid]",8000
4,"COCCCOc1cc2c(cc1OC)-c1[nH]c(=O)c(C(=O)O)c(Cl)c1C(C(C)C)C2 (stereo not shown) [Example 20, 4-Chloro-5-isopropyl-9-methoxy-8-(3-methoxypropoxy)-2-oxo-1,2,5,6-tetrahydrobenzo[h]quinoline-3-carboxylic acid]",3800
5,"COCCCOc1cc2c(cc1OC)-c1nc(Cl)c(C(=O)O)c(Cl)c1C(C(C)C)C2 (stereo not shown) [Example 21, 2,4-Dichloro-5-isopropyl-9-methoxy-8-(3-methoxypropoxy)-5,6-dihydrobenzo[h]quinoline-3-carboxylic acid]",150
6,"COCCCOc1cc2c(cc1OC)-c1[nH]c(=O)cc(O)c1C(C(C)C)C2 (stereo not shown) [Example 22, 4-Hydroxy-5-isopropyl-9-methoxy-8-(3-methoxypropoxy)-5,6-dihydrobenzo[h]quinolin-2(1H)-one]",340
7,"COCCCOc1cc2c(cc1OC)-c1nc(Cl)c(C(=O)O)cc1C(C(C)C)C2 (stereo not shown) [Example 23, 2-Chloro-5-isopropyl-9-methoxy-8-(3-methoxypropoxy)-5,6-dihydrobenzo[h]quinoline-3-carboxylic acid]",240
8,"COCCCOc1cc2c(nc1Cl)-c1c(cc(C(=O)O)c(=O)n1C)C(C(C)C)C2 (stereo not shown) [Example 25, 9-Chloro-5-isopropyl-8-(3-methoxypropoxy)-1-methyl-2-oxo-1,2,5,6-tetrahydro-1,10-phenanthroline-3-carboxylic acid]",94
9,"COCCCOc1cc2c(nc1Cl)-c1[nH]c(=O)c(C(=O)O)c(O)c1C(C(C)C)C2 (stereo not shown) [Example 26, 9-Chloro-4-hydroxy-5-isopropyl-8-(3-methoxypropoxy)-2-oxo-1,2,5,6-tetrahydro-1,10-phenanthroline-3-carboxylic acid]",3
10,"COCCCOc1cc2c(nc1Cl)-c1[nH]c(=O)c(C(=O)O)c(O)c1C(C(C)(C)C)C2 (stereo not shown) [Example 29, 5-(tert-Butyl)-9-chloro-4-hydroxy-8-(3-methoxypropoxy)-2-oxo-1,2,5,6-tetrahydro-1,10-phenanthroline-3-carboxylicacid]",1
11,"COCCCOc1cc2c(cc1OC)-c1[nH]c(=O)c(C(=O)O)c(O)c1C(C)(C(C)C)C2 (stereo not shown) [Example 30, 4-Hydroxy-5-isopropyl-9-methoxy-8-(3-methoxypropoxy)-5-methyl-2-oxo-1,2,5,6-tetrahydrobenzo[h]quinoline-3-carboxylic acid]",58
12,"COCCCOc1cc2c(nc1OC)-c1[nH]c(=O)c(C(=O)O)c(O)c1C(C(C)C)C2 (stereo not shown) [Example 33, 4-Hydroxy-5-isopropyl-9-methoxy-8-(3-methoxypropoxy)-2-oxo-1,2,5,6-tetrahydro-1,10-phenanthroline-3-carboxylic acid]",4
13,"COCCCOc1cc2c(nc1OC)-c1[nH]c(=O)c(C(=O)O)c(O)c1C(C(C)(C)C)C2 (stereo not shown) [Example 36, 5-(tert-Butyl)-4-hydroxy-9-methoxy-8-(3-methoxypropoxy)-2-oxo-1,2,5,6-tetrahydro-1,10-phenanthroline-3-carboxylicacid]",1
